{"source": "patent US8835134B2", "about": "“Cycloastragenol monoglucoside, preparation, pharmaceutical composition and application thereof” (Tianjin Institute of Pharmaceutical Research, priority 2007, dated 2014)", "system": "anesthetized open-chest dogs", "experiment": "Hemodynamics of anesthetized open-chest dogs, intravenous infusion", "assay_type": "in vivo, mongrel dogs", "settings": "0.15 mg/kg iv", "method": "The animals were anesthetized by intravenous injection of 30 mg/kg sodium pentobarbital, tracheally intubated, and mechanically ventilated with positive air pressure. Left thoracotomy was performed through the fourth intercostal space and the heart was suspended in a pericardial cradle, the aortic root was isolated and a probe of blood flow meter (12 or 14 mm in diameter) was fixed to measure the aortic blood flow as a representation of cardiac output (CO), the circumflex branch of left coronary artery was isolated and a probe of blood flow meter (2 or 2.5 mm in diameter) was fixed to measure the coronary blood flow (CBF). A polyethylene catheter filled with heparin physiological saline was inserted through cardiac apex into the left ventricle to measure the left ventricular pressure (LVP) and left ventricular end-diastolic pressure (LVEDP), Peak positive and peak negative first derivatives of the LVP (+ LVdp/dt and − LVdp/dt) were calculated with the Acknowledge software. The systolic blood pressure (SBP), diastolic blood pressure (DBP) and mean arterial pressure (MAP) were measured by polyethylene catheter via the femoral artery, ECG □ was measured by a AC-601G ECG amplifier. The above-mentioned analog signal was input into a data acquisition workstation (MP100, BIOPAC Systems, USA) to a computer running Acknowledge (version 3.7.1).\nAfter surgery, various indexes before administration were recorded until the indexes were stable, and then intravenous infusion administration was conducted. Thirty dogs were divided into five groups (six dogs in each group), the experiment groups were given 0.15, 0.3, 0.6 mg/kg of ASP-[…] respectively, the normal control group was given 1 ml/kg of solvent, and the positive control group was given 0.3 mg/kg of astragaloside IV. The delivery volumes were 15 ml for each dog was and the delivery velocity was 1 ml/min. The indexes were recorded at 5, 10, 15, 20, 30, 45, 60, 90 and 120 mins after drug administration. At the end of experiment, the hearts were excised and weighted. The myocardial blood flow for per hectogram (CF), coronary resistance (CR), cardiac index (CI), left ventricular work (LVW) and total peripheral resistance (TPR) were calculated according to the following formulae: CF=CBF×[…]/heart weight CR=MAP/CF CI=CO/0.11×(body weight)^2/3 LVW=CO×(MAP−5)×1.052×0.0136 TPR=MAP×79.92/CO\nData are expressed as mean±SD ( x±s), the paired t-test was used to compare the significance between before and after administration, the unpaired t-test was adopted for comparison between groups.", "data": [{"compound": "CC(C)(O)[C@@H]1CC[C@](C)([C@H]2[C@@H](O)C[C@@]3(C)C4C[C@H](OC5OC(CO)C(O)C(O)C5O)C5C(C)(C)[C@@H](O)CC[C@@]56C[C@@]46CC[C@]23C)O1", "note": "(stereo partly drawn) [CMG, Cycloastragenol-6-O-β-D-glucoside]", "values": [{"measurement": "LVEDP maximum decrease", "value": "1.1±0.4", "unit": "mmHg"}, {"measurement": "CF", "setting": "5 min after administration", "value": "57 ± 21.7", "unit": "ml/min/100 g"}, {"measurement": "CF change vs before administration", "setting": "5 min after administration", "value": "(−0.7 ± 3.6) ml/min/100 g"}, {"measurement": "CI", "setting": "5 min after administration", "value": "2.15 ± 0.65", "unit": "L/min/m^2"}, {"measurement": "CI change vs before administration", "setting": "5 min after administration", "value": "(0.07 ± 0.16) L/min/m^2"}, {"measurement": "CO", "setting": "5 min after administration", "value": "1.24 ± 0.38", "unit": "L/min"}, {"measurement": "CO change vs before administration", "setting": "5 min after administration", "value": "(0.04 ± 0.09) L/min"}, {"measurement": "CR", "setting": "5 min after administration", "value": "1.35 ± 0.42", "unit": "mmHg/ml/min/100 g"}, {"measurement": "CR change vs before administration", "setting": "5 min after administration", "value": "(−0.01 ± 0.08) mmHg/ml/min/100 g"}, {"measurement": "LVEDP", "setting": "5 min after administration", "value": "1.0 ± 2.3", "unit": "mmHg"}, {"measurement": "LVEDP change vs before administration", "setting": "5 min after administration", "value": "(−0.78 ± 0.61) mmHg"}, {"measurement": "LVP", "setting": "5 min after administration", "value": "105 ± 21", "unit": "mmHg"}, {"measurement": "LVP change vs before administration", "setting": "5 min after administration", "value": "(0.1 ± 3.4) mmHg"}, {"measurement": "LVW", "setting": "5 min after administration", "value": "1.15 ± 0.43", "unit": "kg · m"}, {"measurement": "LVW change vs before administration", "setting": "5 min after administration", "value": "(0.03 ± 0.17) kg · m"}, {"measurement": "TPR", "setting": "5 min after administration", "value": "4967 ± 2135", "unit": "dyn · s/cm^5"}, {"measurement": "TPR change vs before administration", "setting": "5 min after administration", "value": "(−183 ± 313) dyn · s/cm^5"}, {"measurement": "dp/dt", "setting": "5 min after administration", "value": "1205 ± 417", "unit": "mmHg/s"}, {"measurement": "dp/dt change vs before administration", "setting": "5 min after administration", "value": "(56 ± 94) mmHg/s"}, {"measurement": "−dp/dt", "setting": "5 min after administration", "value": "−865 ± 286", "unit": "mmHg/s"}, {"measurement": "−dp/dt change vs before administration", "setting": "5 min after administration", "value": "(22 ± 65) mmHg/s"}, {"measurement": "CF", "setting": "10 min after administration", "value": "55.9 ± 21.6", "unit": "ml/min/100 g"}, {"measurement": "CF change vs before administration", "setting": "10 min after administration", "value": "(−1.8 ± 5.0) ml/min/100 g"}, {"measurement": "CI", "setting": "10 min after administration", "value": "2.26 ± 0.55", "unit": "L/min/m^2"}, {"measurement": "CI change vs before administration", "setting": "10 min after administration", "value": "(0.18 ± 0.20) L/min/m^2"}, {"measurement": "CO", "setting": "10 min after administration", "value": "1.31 ± 0.32", "unit": "L/min"}, {"measurement": "CO change vs before administration", "setting": "10 min after administration", "value": "(0.10 ± 0.12) L/min"}, {"measurement": "CR", "setting": "10 min after administration", "value": "1.36 ± 0.42", "unit": "mmHg/ml/min/100 g"}, {"measurement": "CR change vs before administration", "setting": "10 min after administration", "value": "(0.00 ± 0.11) mmHg/ml/min/100 g"}, {"measurement": "LVEDP", "setting": "10 min after administration", "value": "1.0 ± 2.3", "unit": "mmHg"}, {"measurement": "LVEDP change vs before administration", "setting": "10 min after administration", "value": "(−0.73 ± 0.49) mmHg"}, {"measurement": "LVP", "setting": "10 min after administration", "value": "103 ± 22", "unit": "mmHg"}, {"measurement": "LVP change vs before administration", "setting": "10 min after administration", "value": "(−1.5 ± 3.7) mmHg"}, {"measurement": "LVW", "setting": "10 min after administration", "value": "1.18 ± 0.34", "unit": "kg · m"}, {"measurement": "LVW change vs before administration", "setting": "10 min after administration", "value": "(0.06 ± 0.19) kg · m"}, {"measurement": "TPR", "setting": "10 min after administration", "value": "4568 ± 1871", "unit": "dyn · s/cm^5"}, {"measurement": "TPR change vs before administration", "setting": "10 min after administration", "value": "(−582 ± 652) dyn · s/cm^5"}, {"measurement": "dp/dt", "setting": "10 min after administration", "value": "1173 ± 407", "unit": "mmHg/s"}, {"measurement": "dp/dt change vs before administration", "setting": "10 min after administration", "value": "(23 ± 110) mmHg/s"}, {"measurement": "−dp/dt", "setting": "10 min after administration", "value": "−883 ± 288", "unit": "mmHg/s"}, {"measurement": "−dp/dt change vs before administration", "setting": "10 min after administration", "value": "(5 ± 36) mmHg/s"}, {"measurement": "CF", "setting": "15 min after administration", "value": "55.9 ± 22.2", "unit": "ml/min/100 g"}, {"measurement": "CF change vs before administration", "setting": "15 min after administration", "value": "(−1.8 ± 5.8) ml/min/100 g"}, {"measurement": "CI", "setting": "15 min after administration", "value": "2.09 ± 0.45", "unit": "L/min/m^2"}, {"measurement": "CI change vs before administration", "setting": "15 min after administration", "value": "(0.01 ± 0.24) L/min/m^2"}, {"measurement": "CO", "setting": "15 min after administration", "value": "1.21 ± 0.26", "unit": "L/min"}, {"measurement": "CO change vs before administration", "setting": "15 min after administration", "value": "(0.00 ± 0.15) L/min"}, {"measurement": "CR", "setting": "15 min after administration", "value": "1.32 ± 0.38", "unit": "mmHg/ml/min/100 g"}, {"measurement": "CR change vs before administration", "setting": "15 min after administration", "value": "(−0.03 ± 0.14) mmHg/ml/min/100 g"}, {"measurement": "LVEDP", "setting": "15 min after administration", "value": "1.0 ± 2.3", "unit": "mmHg"}, {"measurement": "LVEDP change vs before administration", "setting": "15 min after administration", "value": "(−0.73 ± 0.60) mmHg"}, {"measurement": "LVP", "setting": "15 min after administration", "value": "103 ± 25", "unit": "mmHg"}, {"measurement": "LVP change vs before administration", "setting": "15 min after administration", "value": "(−2.0 ± 4.7) mmHg"}, {"measurement": "LVW", "setting": "15 min after administration", "value": "1.08 ± 0.31", "unit": "kg · m"}, {"measurement": "LVW change vs before administration", "setting": "15 min after administration", "value": "(−0.04 ± 0.19) kg · m"}, {"measurement": "TPR", "setting": "15 min after administration", "value": "4612 ± 1333", "unit": "dyn · s/cm^5"}, {"measurement": "TPR change vs before administration", "setting": "15 min after administration", "value": "(−538 ± 1075) dyn · s/cm^5"}, {"measurement": "dp/dt", "setting": "15 min after administration", "value": "1170 ± 449", "unit": "mmHg/s"}, {"measurement": "dp/dt change vs before administration", "setting": "15 min after administration", "value": "(20 ± 113) mmHg/s"}, {"measurement": "−dp/dt", "setting": "15 min after administration", "value": "−875 ± 288", "unit": "mmHg/s"}, {"measurement": "−dp/dt change vs before administration", "setting": "15 min after administration", "value": "(13 ± 49) mmHg/s"}, {"measurement": "CF", "setting": "20 min after administration", "value": "54.3 ± 20.4", "unit": "ml/min/100 g"}, {"measurement": "CF change vs before administration", "setting": "20 min after administration", "value": "(−3.4 ± 4.4) ml/min/100 g"}, {"measurement": "CI", "setting": "20 min after administration", "value": "2.05 ± 0.45", "unit": "L/min/m^2"}, {"measurement": "CI change vs before administration", "setting": "20 min after administration", "value": "(−0.03 ± 0.26) L/min/m^2"}, {"measurement": "CO", "setting": "20 min after administration", "value": "1.19 ± 0.27", "unit": "L/min"}, {"measurement": "CO change vs before administration", "setting": "20 min after administration", "value": "(−0.02 ± 0.15) L/min"}, {"measurement": "CR", "setting": "20 min after administration", "value": "1.35 ± 0.39", "unit": "mmHg/ml/min/100 g"}, {"measurement": "CR change vs before administration", "setting": "20 min after administration", "value": "(0.00 ± 0.13) mmHg/ml/min/100 g"}, {"measurement": "LVEDP", "setting": "20 min after administration", "value": "1.2 ± 2.4", "unit": "mmHg"}, {"measurement": "LVEDP change vs before administration", "setting": "20 min after administration", "value": "(−0.62 ± 0.47) mmHg"}, {"measurement": "LVP", "setting": "20 min after administration", "value": "101 ± 21", "unit": "mmHg"}, {"measurement": "LVP change vs before administration", "setting": "20 min after administration", "value": "(−3.8 ± 5.1) mmHg"}]}]}
